Legend:
TF-VIIa = target: T1, TF-VIIa (Homo sapiens, UniProt P08709); test: TF-VIIa Assay; format: biochemical; details: 100 µM
T1 construct: 2nM recombinant human factor VIIa; purchased American Diagnostica, Greenwich CT; host or cells: soluble TF made in house in E. coli

Human factor Xa = Human factor Xa (Homo sapiens, UniProt P00742)
Sequence of Human factor Xa (P00742 235-488 limits assumed): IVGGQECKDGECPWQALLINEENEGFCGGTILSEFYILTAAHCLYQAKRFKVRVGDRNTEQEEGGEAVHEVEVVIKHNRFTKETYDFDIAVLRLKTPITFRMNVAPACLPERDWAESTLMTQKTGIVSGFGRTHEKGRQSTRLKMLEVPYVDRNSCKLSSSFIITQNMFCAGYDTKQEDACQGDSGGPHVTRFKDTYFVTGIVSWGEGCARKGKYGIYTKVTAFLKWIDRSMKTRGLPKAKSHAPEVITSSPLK
Sequence of Human factor Xa (P00742 41-179 limits assumed): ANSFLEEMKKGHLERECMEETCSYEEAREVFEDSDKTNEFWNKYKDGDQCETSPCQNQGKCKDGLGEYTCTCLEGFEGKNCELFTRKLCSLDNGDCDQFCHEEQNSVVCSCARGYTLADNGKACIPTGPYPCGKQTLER

T1 sequence (P08709 213-466 limits assumed): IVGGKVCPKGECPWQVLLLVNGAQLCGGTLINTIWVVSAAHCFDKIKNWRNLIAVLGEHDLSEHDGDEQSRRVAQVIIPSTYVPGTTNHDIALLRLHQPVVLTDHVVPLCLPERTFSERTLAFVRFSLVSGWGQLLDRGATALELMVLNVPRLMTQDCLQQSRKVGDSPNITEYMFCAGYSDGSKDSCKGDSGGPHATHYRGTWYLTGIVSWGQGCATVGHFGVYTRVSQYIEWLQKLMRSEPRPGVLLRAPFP
T1 sequence (P08709 61-212 limits assumed): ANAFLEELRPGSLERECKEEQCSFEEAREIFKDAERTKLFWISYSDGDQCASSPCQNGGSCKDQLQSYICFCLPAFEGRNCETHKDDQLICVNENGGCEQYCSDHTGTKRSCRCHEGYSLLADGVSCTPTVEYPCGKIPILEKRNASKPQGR
T1 sequence (P13726 33-251 partner limits assumed): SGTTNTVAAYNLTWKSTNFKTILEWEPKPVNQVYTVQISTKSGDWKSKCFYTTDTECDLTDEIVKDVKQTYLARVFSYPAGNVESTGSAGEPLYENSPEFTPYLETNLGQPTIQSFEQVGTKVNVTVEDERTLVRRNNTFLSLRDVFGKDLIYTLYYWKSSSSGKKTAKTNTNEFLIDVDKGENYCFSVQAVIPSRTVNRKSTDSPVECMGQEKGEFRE

| Compound | % Inhibition TF-VIIa (100 µM) (TF-VIIa) | % Inhibition Factor Xa (100 µM) (Human factor Xa) |
| --- | --- | --- |
| O=C(Cn1c(-c2ccc(Cl)cc2)c(Cl)nc(NCCc2cccnc2)c1=O)NCCc1ccncc1 [Example E-0029] | 0% | – |
| O=C(Cn1c(-c2ccc(Cl)cc2)c(Cl)nc(NCCc2ccncc2)c1=O)NCCc1ccncc1 [Example E-0030] | 0% | – |
| O=C(Cn1c(-c2ccc(Cl)cc2)c(Cl)nc(NCc2ccncc2)c1=O)NCCc1ccncc1 [Example E-0032] | 0% | – |
| COc1ccc(-c2c(Cl)nc(NCCc3ccccc3)c(=O)n2CC(=O)NCCc2ccncc2)cc1 [Example E-0034] | 0% | – |
| COc1ccc(-c2c(Cl)nc(NCCc3cccc(Cl)c3)c(=O)n2CC(=O)NCCc2ccncc2)cc1 [Example E-0035] | 4% | – |
| COc1ccc(-c2c(Cl)nc(NCCc3ccc(Cl)cc3)c(=O)n2CC(=O)NCCc2ccncc2)cc1 [Example E-0036] | 0% | – |
| O=C(Cn1c(-c2ccc(-c3ccccc3)cc2)c(Cl)nc(NCc2ccccc2)c1=O)NCCc1ccncc1 [Example E-0049] | 2% | – |
| O=C(Cn1c(-c2ccc(-c3ccccc3)cc2)c(Cl)nc(NCCc2ccccc2)c1=O)NCCc1ccncc1 [Example E-0050] | 0% | – |
| O=C(Cn1c(-c2ccc(-c3ccccc3)cc2)c(Cl)nc(NCCc2ccc(Cl)cc2)c1=O)NCCc1ccncc1 [Example E-0052] | 0% | – |
| O=C(Cn1c(-c2cccc(Cl)c2)c(Cl)nc(NCc2ccccc2)c1=O)NCCc1ccncc1 [Example E-0073] | 0% | – |
| O=C(Cn1c(-c2cccc(Cl)c2)c(Cl)nc(NCc2ccccc2)c1=O)NCCc1cccnc1 [Example E-0074] | 0% | – |
| O=C(Cn1c(-c2cccc(Cl)c2)c(Cl)nc(NCCc2ccccc2)c1=O)NCCc1ccncc1 [Example E-0076] | 0% | – |
| O=C(Cn1c(-c2cccc(Cl)c2)c(Cl)nc(NCCc2ccccc2)c1=O)NCCc1cccnc1 [Example E-0077] | 0% | – |
| O=C(Cn1c(-c2cccc(Cl)c2)c(Cl)nc(NCCc2cccc(Cl)c2)c1=O)NCCc1ccncc1 [Example E-0079] | 0% | – |
| O=C(Cn1c(-c2cccc(Cl)c2)c(Cl)nc(NCCc2cccc(Cl)c2)c1=O)NCCc1cccnc1 [Example E-0080] | 1% | – |
| O=C(Cn1c(-c2cccc(Cl)c2)c(Cl)nc(NCCc2ccc(Cl)cc2)c1=O)NCCc1ccncc1 [Example E-0082] | 4% | – |

| Compound | % Inhibition TF-VIIa (100 µM) (TF-VIIa) | % Inhibition Factor Xa (100 µM) (Human factor Xa) |
| --- | --- | --- |
| O=C(Cn1c(-c2cccc(Cl)c2)c(Cl)nc(NCCc2ccc(Cl)cc2)c1=O)NCCc1cccnc1 [Example E-0083] | 2% | – |
| O=C(Cn1c(-c2cccc(Cl)c2)c(Cl)nc(NCc2ccccc2)c1=O)NCCc1ccncc1 [Example E-0085] | 0% | – |
| O=C(Cn1c(-c2cccc(Cl)c2)c(Cl)nc(NCc2ccccc2)c1=O)NCCc1cccnc1 [Example E-0086] | 0% | – |
| O=C(Cn1c(-c2cccc(Cl)c2)c(Cl)nc(NCCc2ccccc2)c1=O)NCCc1ccncc1 [Example E-0088] | 0% | – |
| O=C(Cn1c(-c2cccc(Cl)c2)c(Cl)nc(NCCc2ccccc2)c1=O)NCCc1cccnc1 [Example E-0089] | 3% | – |
| O=C(Cn1c(-c2cccc(Cl)c2)c(Cl)nc(NCCc2cccc(Cl)c2)c1=O)NCCc1ccncc1 [Example E-0091] | 1% | – |
| O=C(Cn1c(-c2cccc(Cl)c2)c(Cl)nc(NCCc2cccc(Cl)c2)c1=O)NCCc1cccnc1 [Example E-0092] | 1% | – |
| O=C(Cn1c(-c2cccc(Cl)c2)c(Cl)nc(NCCc2ccc(Cl)cc2)c1=O)NCCc1ccncc1 [Example E-0094] | 2% | – |
| O=C(Cn1c(-c2cccc(Cl)c2)c(Cl)nc(NCCc2ccc(Cl)cc2)c1=O)NCCc1cccnc1 [Example E-0095] | 2% | – |
| COc1ccc(-c2c(Cl)nc(NCCc3cccc(Cl)c3)c(=O)n2CC(=O)NCCc2ccncc2)cc1 [Example E-0103] | 2% | – |
| COc1ccc(-c2c(Cl)nc(NCCc3ccc(Cl)cc3)c(=O)n2CC(=O)NCCc2ccncc2)cc1 [Example E-0106] | 5% | – |
| O=C(Cn1c(-c2ccc(-c3ccccc3)cc2)c(Cl)nc(NCc2ccccc2)c1=O)NCCc1ccncc1 [Example E-0109] | 2% | – |
| O=C(Cn1c(-c2ccc(-c3ccccc3)cc2)c(Cl)nc(NCCc2ccccc2)c1=O)NCCc1ccncc1 [Example E-0112] | 11% | – |
| O=C(Cn1c(-c2ccc(-c3ccccc3)cc2)c(Cl)nc(NCCc2cccc(Cl)c2)c1=O)NCCc1cccnc1 [Example E-0116] | – | 4% |
| O=C(Cn1c(-c2ccc(-c3ccccc3)cc2)c(Cl)nc(NCCc2ccc(Cl)cc2)c1=O)NCCc1ccncc1 [Example E-0118] | 12% | – |
| O=C(Cn1c(-c2ccc(-c3ccccc3)cc2)c(Cl)nc(NCCc2ccc(Cl)cc2)c1=O)NCCc1cccnc1 [Example E-0119] | – | 5% |
